Experiments:
[1] = system: IPC-298 human melanoma cell line that expresses activated NRAS; test: IPC-298_P-ERK cell activation assay (phosphorylated ERK, AlphaScreen); type: cell-based; details: IPC-298 cells, P-ERK activation
Protocol: B9 is a squamous cell carcinoma cell line expressing activated HRAS that was isolated from a DMBA/TPA-induced mouse model of skin carcinogenesis (Stoler, et al. The Journal of Cell Biology, 1993, 122(5), 1103-17). IPC-298 is a human melanoma cell line that expresses activated NRAS (Aubert, et al. International Journal of Cancer, 1993, 54(5), 784-92). To determine whether compounds induce phosphorylated ERK and MEK, cells are plated in a 96-well dish and treated with an 8-point titration of compound for one hour at 37° C. The media is then removed and the cells are incubated with lysis buffer containing protease and phosphatase inhibitors. Phosphorylated ERK and MEK in the resulting lysates is detected using AlphaScreen™ technology. To detect phosphorylated ERK, cell lysates are incubated with streptavidin-coated donor beads, anti-mouse IgG acceptor beads, a biotinylated anti-ERK1/2 rabbit antibody, and a mouse antibody that recognizes ERK1/2 only when it is phosphorylated on Thr202 and Tyr204. The biotinylated ERK1/2 antibody will bind to both the streptavidin-coated donor beads and to ERK1/2 (regardless of its phosphorylation state), and the phospho-ERK1/2 antibody will bind to the acceptor beads and to ERK1/2 that is phosphorylated at Thr202/Tyr204. Excitation of the beads with laser light at 680 nm produces singlet oxygen, which is rapidly quenched unless the beads are in close proximity. When ERK is phosphorylated, both antibodies can bind the same protein, bringing the donor and acceptor beads into close proximity, producing a signal that can be measured at 580 nm. MEK phosphorylation is detected using a similar approach, only with antibodies directed against total MEK1/2 and MEK1/2 that is phosphorylated at Ser217 and Ser221.

B-Raf V600E = B-Raf V600E (Homo sapiens (Human), UniProt P15056, V600E); test: B-Raf V600E kinase biochemical activity assay (AlphaScreen, biotin-MEK1 substrate); details: 100 μM ATP
B-Raf V600E, sequence (P15056 whole entry V600E): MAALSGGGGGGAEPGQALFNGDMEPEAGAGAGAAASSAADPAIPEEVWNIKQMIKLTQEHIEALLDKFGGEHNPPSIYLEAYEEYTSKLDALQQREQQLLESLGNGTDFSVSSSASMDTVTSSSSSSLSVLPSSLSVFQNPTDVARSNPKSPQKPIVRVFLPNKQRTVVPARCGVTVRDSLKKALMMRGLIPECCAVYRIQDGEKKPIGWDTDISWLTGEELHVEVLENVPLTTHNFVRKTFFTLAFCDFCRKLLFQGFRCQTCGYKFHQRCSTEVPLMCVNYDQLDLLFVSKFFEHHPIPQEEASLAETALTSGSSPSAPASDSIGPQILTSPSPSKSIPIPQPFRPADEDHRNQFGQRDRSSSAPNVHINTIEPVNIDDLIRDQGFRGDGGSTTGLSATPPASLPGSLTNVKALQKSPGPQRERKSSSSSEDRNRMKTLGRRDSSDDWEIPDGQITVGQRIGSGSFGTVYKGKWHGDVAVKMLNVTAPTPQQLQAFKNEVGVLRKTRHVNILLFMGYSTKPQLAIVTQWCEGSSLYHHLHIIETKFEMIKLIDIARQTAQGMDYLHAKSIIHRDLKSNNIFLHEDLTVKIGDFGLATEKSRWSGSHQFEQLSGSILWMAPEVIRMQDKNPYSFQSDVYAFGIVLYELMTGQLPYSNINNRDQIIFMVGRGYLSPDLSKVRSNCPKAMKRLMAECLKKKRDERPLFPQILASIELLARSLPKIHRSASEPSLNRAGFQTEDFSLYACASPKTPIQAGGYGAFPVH
Summary of the method: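 B-Raf V600E (0.1 ng) phosphorylated 100 nM biotin-MEK1 with 100 μM ATP (final) in HEPES pH 7.0 with Mg2+/Mn2+ for 45 min at room temperature. Compounds were tested over an 8-point serial dilution. Phospho-MEK1/2 was detected by AlphaScreen after 3 h with beads, and IC50 came from signal versus concentration.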

[2] = system: COLO205 colon adenocarcinoma cells (B-Raf V600E mutation); test: COLO205 cell growth inhibition (ATPlite); type: cell-based; details: Homo sapiens, COLO 205, 72 h, 3 days
Summary of the method: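 Cells treated for 3 days at 37 °C, 5% CO2 with an 8-point 1:3 dilution series, top final concentration 10 μM, DMSO control. ATPlite luminescence used as a measure of cell number; IC50 from reading versus concentration.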

| Compound | EC50 ([1]; compounds known in the art) | IC50 (B-Raf V600E) | EC50 ([1]; 1 h, compound for one hour) | IC50 [2] |
| --- | --- | --- | --- | --- |
| COc1ncc(-c2cnc3[nH]cc(C(=O)c4c(F)ccc(NS(=O)(=O)c5cc(F)ccc5F)c4F)c3c2)cn1 | < 1 µM |  |  |  |
| COc1ncc(-c2cnc3[nH]cc(C(=O)c4c(F)ccc(NS(=O)(=O)c5ccccc5F)c4F)c3c2)cn1 | < 0.5 µM |  |  |  |
| CCCS(=O)(=O)Nc1ccc(F)c(C(=O)c2c[nH]c3ncc(Cl)cc23)c1F | < 0.5 µM |  |  |  |
| O=C(c1c(F)ccc(NS(=O)(=O)N2CCCC2)c1F)c1c[nH]c2ncc(F)c(I)c12 [Compound P-0015, N-[2,4-difluoro-3-(5-fluoro-4-iodo-1H-pyrrolo[2,3-b]pyridine-3-carbonyl)phenyl]pyrrolidine-1-sulfonamide] |  | < 0.1 µM | > 10 µM |  |
| O=C(c1c(F)ccc(NS(=O)(=O)N2CCCC2)c1F)c1c[nH]c2ncc(-c3ccc(Cl)cc3)cc12 [Compound P-0021] |  | < 0.1 µM | > 10 µM |  |
| CN(C)c1ncc(-c2cnc3[nH]cc(C(=O)c4c(F)ccc(NS(=O)(=O)N5CCCC5)c4F)c3c2)cn1 [Compound P-0022] |  |  | > 10 µM |  |
| O=C(c1c(F)ccc(NS(=O)(=O)N2CCCC2)c1F)c1c[nH]c2ncc(I)cc12 [Compound P-0024] |  |  | > 10 µM |  |
| CNS(=O)(=O)Nc1cccc(C(=O)c2c[nH]c3ncc(-c4cnc(OC)nc4)cc23)c1F [Compound P-0026] |  |  | > 10 µM |  |
| Cc1ccc(-c2cnc3[nH]cc(C(=O)c4cccc(NS(=O)(=O)N(C)C)c4F)c3c2)cn1 [Compound P-0029] |  |  | > 10 µM |  |
| CN(C)c1ccc(-c2cnc3[nH]cc(C(=O)c4cccc(NS(=O)(=O)N(C)C)c4F)c3c2)cn1 [Compound P-0030] |  |  | > 10 µM |  |
| CCN(C)S(=O)(=O)Nc1cccc(C(=O)c2c[nH]c3ncc(-c4ccc(C#N)cc4)cc23)c1F [Compound P-0031] |  |  | > 10 µM |  |
| CCN(C)S(=O)(=O)Nc1cccc(C(=O)c2c[nH]c3ncc(-c4cccnc4)cc23)c1F [Compound P-0032] |  |  | > 10 µM |  |
| CCN(C)S(=O)(=O)Nc1ccc(F)c(C(=O)c2c[nH]c3ncc(-c4cncs4)cc23)c1F [Compound P-0315, 5-[3-[3-[[ethyl(methyl)sulfamoyl]amino]-2,6-difluoro-benzoyl]-1H-pyrrolo[2,3-b]pyridin-5-yl]thiazole] |  | < 0.1 µM |  | < 1 µM |
| CCN(C)S(=O)(=O)Nc1ccc(F)c(C(=O)c2c[nH]c3ncc(-c4csc(C(C)(C)O)n4)cc23)c1F [Compound P-0316, 4-[3-[3-[[ethyl(methyl)sulfamoyl]amino]-2,6-difluoro-benzoyl]-1H-pyrrolo[2,3-b]pyridin-5-yl]-2-(1-hydroxy-1-methyl-ethyl)thiazole] |  | < 0.1 µM |  | < 1 µM |
| CCN(C)S(=O)(=O)Nc1ccc(F)c(C(=O)c2c[nH]c3ncc(-c4ccc(OC)nn4)cc23)c1F [Compound P-0317, 3-[3-[[ethyl(methyl)sulfamoyl]amino]-2,6-difluoro-benzoyl]-5-(6-methoxypyridazin-3-yl)-1H-pyrrolo[2,3-b]pyridine] |  | < 0.1 µM |  | < 1 µM |
| O=C(c1c(F)ccc(NS(=O)(=O)N2CCCC2)c1F)c1c[nH]c2ncc(-c3cc(N4CCOCC4)ncn3)cc12 [Compound P-0318, N-[2,4-difluoro-3-[5-(6-morpholinopyrimidin-4-yl)-1H-pyrrolo[2,3-b]pyridine-3-carbonyl]phenyl]pyrrolidine-1-sulfonamide] |  | < 0.1 µM |  | < 1 µM |
| O=C(c1cccc(NS(=O)(=O)N2CCCC2)c1F)c1c[nH]c2ncc(-c3cc(N4CCOCC4)ncn3)cc12 [Compound P-0321, N-[2-fluoro-3-[5-(6-morpholinopyrimidin-4-yl)-1H-pyrrolo[2,3-b]pyridine-3-carbonyl]phenyl]pyrrolidine-1-sulfonamide] |  | < 0.1 µM |  | < 1 µM |
| CN1CCN(c2cc(-c3cnc4[nH]cc(C(=O)c5cccc(NS(=O)(=O)N6CCCC6)c5F)c4c3)ncn2)CC1 [Compound P-0322, N-[2-fluoro-3-[5-[6-(4-methylpiperazin-1-yl)pyrimidin-4-yl]-1H-pyrrolo[2,3-b]pyridine-3-carbonyl]phenyl]pyrrolidine-1-sulfonamide] |  | < 0.1 µM |  | < 1 µM |
| CN1CCN(c2cccc(-c3cnc4[nH]cc(C(=O)c5cccc(NS(=O)(=O)N6CCCC6)c5F)c4c3)n2)CC1 [Compound P-0324, N-[2-fluoro-3-[5-[6-(4-methylpiperazin-1-yl)-2-pyridyl]-1H-pyrrolo[2,3-b]pyridine-3-carbonyl]phenyl]pyrrolidine-1-sulfonamide] |  | < 0.1 µM |  | < 1 µM |
| COc1ccnc(-c2cnc3[nH]cc(C(=O)c4cccc(NS(=O)(=O)N5CCCC5)c4F)c3c2)n1 [Compound P-0325, N-[2-fluoro-3-[5-(4-methoxypyrimidin-2-yl)-1H-pyrrolo[2,3-b]pyridine-3-carbonyl]phenyl]pyrrolidine-1-sulfonamide] |  | < 0.1 µM |  | > 1 µM |
| Cc1ccnc(-c2cnc3[nH]cc(C(=O)c4cccc(NS(=O)(=O)N5CCCC5)c4F)c3c2)n1 [Compound P-0326, N-[2-fluoro-3-[5-(4-methylpyrimidin-2-yl)-1H-pyrrolo[2,3-b]pyridine-3-carbonyl]phenyl]pyrrolidine-1-sulfonamide] |  | < 0.1 µM |  | > 1 µM |
| O=C(c1cccc(NS(=O)(=O)N2CC[C@@H](F)C2)c1F)c1c[nH]c2ncc(-c3cnc(C4CC4)nc3)cc12 [Compound P-0327, (3R)—N-[3-[5-(2-cyclopropylpyrimidin-5-yl)-1H-pyrrolo[2,3-b]pyridine-3-carbonyl]-2-fluoro-phenyl]-3-fluoro-pyrrolidine-1-sulfonamide] |  | < 0.1 µM |  | < 1 µM |
| CCNS(=O)(=O)Nc1ccc(F)c(C(=O)c2c[nH]c3ncc(-c4cnc(C5CC5)nc4)cc23)c1F [Compound P-0335, [5-(2-cyclopropylpyrimidin-5-yl)-1H-pyrrolo[2,3-b]pyridin-3-yl]-[3-(ethylsulfamoylamino)-2,6-difluoro-phenyl]methanone] |  | < 0.1 µM |  | < 1 µM |
| CCC(C)S(=O)(=O)Nc1ccc(F)c(C(=O)c2c[nH]c3ncc(-c4ccc(Cl)cc4)cc23)c1F (centres unmarked) [Compound P-0337, N-[3-[5-(4-chlorophenyl)-1H-pyrrolo[2,3-b]pyridine-3-carbonyl]-2,4-difluoro-phenyl]butane-2-sulfonamide] |  | < 0.1 µM |  | > 1 µM |
| O=C(c1c(F)ccc(NS(=O)(=O)N2CC[C@@H](F)C2)c1F)c1c[nH]c2ncc(-c3cnc(C4CC4)nc3)cc12 [Compound P-0338, (3R)—N-[3-[5-(2-cyclopropylpyrimidin-5-yl)-1H-pyrrolo[2,3-b]pyridine-3-carbonyl]-2,4-difluoro-phenyl]-3-fluoro-pyrrolidine-1-sulfonamide] |  | < 0.1 µM |  | < 1 µM |
| O=C(c1c(F)ccc(NS(=O)(=O)N2CCC(F)C2)c1F)c1c[nH]c2ncc(-c3cnc(C4CC4)nc3)cc12 (centres unmarked) [Compound P-0339, N-[3-[5-(2-cyclopropylpyrimidin-5-yl)-1H-pyrrolo[2,3-b]pyridine-3-carbonyl]-2,4-difluoro-phenyl]-3-fluoro-pyrrolidine-1-sulfonamide] |  | < 0.1 µM |  | < 1 µM |
| CN(CC(F)(F)F)S(=O)(=O)Nc1ccc(F)c(C(=O)c2c[nH]c3ncc(-c4cnc(C5CC5)nc4)cc23)c1F [Compound P-0340, 5-(2-cyclopropylpyrimidin-5-yl)-3-[2,6-difluoro-3-[[methyl(2,2,2-trifluoroethyl)sulfamoyl]amino]benzoyl]-1H-pyrrolo[2,3-b]pyridine] |  | < 0.1 µM |  | < 1 µM |

From patent US20230277534A1 (Plexxikon Inc., priority 2011, published 2023)
